Earlier results in patent US7235589B2, “Method of treating patients undergoing kidney dialysis” (Bio Numerik Pharmaceuticals, Inc., priority 2004, dated 2007).

How the values were obtained:
[1] = accepted value
mice = settings: intravenously, doses higher than the accepted oral LD50 for common table salt (3750 mg/kg)
humans = settings: doses exceeding 40 g/m^2
dogs = settings: intravenously, doses higher than the accepted oral LD50 for common table salt (3750 mg/kg)

| Structure (SMILES) | oral LD50 [1] | adverse effects (mice) | adverse effects (humans) | adverse effects (dogs) |
| --- | --- | --- | --- | --- |
| [Cl-].[Na+] [common table salt] | 3750 mg/kg |  |  |  |
| O=S(=O)([O-])CCSSCCS(=O)(=O)[O-].[Na+].[Na+] [dimesna, disodium 2,2′-dithiobis ethane sulfonate] |  | no adverse effects | no adverse effects | no adverse effects |
